Laboratory results as given in article PMC4777262 (Pharmacology Research & Perspectives, 2016).

Tests used:
IMPDH1 = IMPDH1 (Homo sapiens, UniProt P20839); test: spectrophotometric NADH production at […] nm; type: biochemical
IMPDH2 = IMPDH2 (Homo sapiens, UniProt P12268); test: spectrophotometric NADH production at […] nm; type: biochemical
Chain of IMPDH2 (P12268 2-514): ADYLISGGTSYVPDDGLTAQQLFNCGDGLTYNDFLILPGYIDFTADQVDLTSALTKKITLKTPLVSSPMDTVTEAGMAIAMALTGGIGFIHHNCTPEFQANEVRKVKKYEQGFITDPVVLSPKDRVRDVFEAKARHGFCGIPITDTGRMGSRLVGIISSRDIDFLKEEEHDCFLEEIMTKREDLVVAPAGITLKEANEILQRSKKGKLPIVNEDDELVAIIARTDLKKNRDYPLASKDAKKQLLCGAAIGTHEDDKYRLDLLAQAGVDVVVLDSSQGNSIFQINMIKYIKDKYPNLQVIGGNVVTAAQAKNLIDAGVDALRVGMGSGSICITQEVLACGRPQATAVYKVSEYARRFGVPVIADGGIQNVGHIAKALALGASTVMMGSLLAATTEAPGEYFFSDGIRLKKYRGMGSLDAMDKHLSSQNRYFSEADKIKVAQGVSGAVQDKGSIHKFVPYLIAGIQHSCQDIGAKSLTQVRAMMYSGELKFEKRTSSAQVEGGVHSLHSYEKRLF

Chain of IMPDH1 (P20839 2-514): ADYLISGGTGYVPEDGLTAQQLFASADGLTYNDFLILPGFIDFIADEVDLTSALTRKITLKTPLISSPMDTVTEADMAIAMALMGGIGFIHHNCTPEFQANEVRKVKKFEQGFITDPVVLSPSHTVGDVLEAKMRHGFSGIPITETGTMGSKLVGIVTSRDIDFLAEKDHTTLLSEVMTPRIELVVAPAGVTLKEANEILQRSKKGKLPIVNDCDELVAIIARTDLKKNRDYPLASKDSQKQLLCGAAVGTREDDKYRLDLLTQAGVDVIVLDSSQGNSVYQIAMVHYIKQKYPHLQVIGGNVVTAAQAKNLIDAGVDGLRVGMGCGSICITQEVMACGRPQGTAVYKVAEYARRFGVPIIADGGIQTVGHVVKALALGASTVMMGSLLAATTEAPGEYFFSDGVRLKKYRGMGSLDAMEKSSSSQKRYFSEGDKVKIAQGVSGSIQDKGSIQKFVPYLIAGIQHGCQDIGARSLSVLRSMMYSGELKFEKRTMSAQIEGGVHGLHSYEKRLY

IC50 (IMPDH1) [nM]	IC50 (IMPDH2) [nM]	Structure (SMILES)
26.4 ± 1.5	–	COc1c(C)c2c(c(O)c1C/C=C(\C)CCC(=O)O)C(=O)OC2 [Mycophenolic acid, reference compound]
29 ± 10.3	31.8 ± 5.6	NC(=O)c1ncn([C@@H]2O[C@H](COP(=O)(O)O)[C@@H](O)[C@H]2O)c1O [FF‐10501RMP]
